According to patent US6303366A, “Biodegradation of the gasoline oxygenates” (Envirogen, Inc., priority 1999, dated 2001):

Key:
M. vaccae JOB5 [1] = assay: Gas chromatography degradation assay, washed cells; assay type: cell-based, Mycobacterium vaccae; conditions: for % Degraded: 30 mg/l, 24 hours, OD550 1.0
Procedure: (§1) Propane-oxidizing microorganisms were grown as described above on either propane, isopropanol, ethanol or acetone, to a cell density of OD550≥0.5. The cells were then collected by centrifugation, washed with BSM, and suspended to an OD550 of 1.0. […] The vials were sealed with Teflon-lined septa and crimp seals and incubated with shaking (250 rpm) at 30° C. for at least 24 hr. Control samples were prepared by adding 50 μl of 10 mM HgCl2 to replicate vials. HgCl2 killed the microorganisms present in the vials allowing these vials to serve as controls. At pre-determined time points, 50 μl of 10 mM HgCl2 were added to the incubating sample to stop the reaction or a sub-sample of the incubating sample was removed for analysis. Degradation of MTBE, ETBE or tert-butyl alcohol (TBA) was measured by gas chromatography.
(§2) Gas chromatography was performed by first removing cells from the samples by centrifugation of the sample vial or the sub-sample. A pre-sealed 2-ml autosampler vial was partially evacuated by inserting a syringe needle through the septa and removing 500 μl of air. Five hundred μl of the clear supernatant fraction of the cell culture were then injected into the vial. The samples were then analyzed by injecting 1 μl of the sample directly into a Varians Model 3400 gas chromatograph equipped with a 30 m Vocol capillary column (Supelco) and a flame ionization detector. The column, injector, and detector were maintained isocratically at 80° C., 200° C., and 225° C., respectively. Standard curves of each compound were generated with aqueous standards of 10 ppm, 25 ppm, 50 ppm, and 100 ppm.

ENV420 = assay: Gas chromatography degradation assay, washed cells; assay type: cell-based; conditions: 30 mg/l, 24 hours, OD550 1.0
Procedure: as §1, §2

ENV425 [2] = assay: Gas chromatography degradation assay, washed cells; assay type: cell-based, Nocardia; conditions: 30 mg/l, 24 hours, OD550 1.0
Procedure: as §1, §2

strain ENV425 [3] = assay: Laboratory-scale membrane bioreactor degradation of MTBE; parameters: species or system Nocardia
Procedure: The BSM feed rate was 1.7 ml/min. to create a hydraulic residence time in the reactor of 2.5 days. The effluent of the reactor passed over the surface of a 100,000 mwt ultra filtration membrane (Model CR250; Raisio Flootek, Molmo, Sweden), at a flow rate of 1.2 to 2.2 ml/min at a pressure of from 1 to 1.5 psi. The retenate containing cells were passed back into the reactor, and the filtrate was discarded as the treated effluent. The reactor was operated at 30° C. at a pH of 7. […] Oxygen concentration within the reactor was monitored by using an Ingold […] and a Cole Palmer model 01971-00 oxygen monitor, and oxygen concentration was maintained at >1% air saturation by adding air or oxygen directly to the reactor.

ENV425 [4] = assay: Field-scale membrane bioreactor treating MTBE-contaminated groundwater; parameters: species or system Nocardia; conditions: for % Removed: continuous operation
Excerpt: Propane oxidizing bacteria were deployed in a field-scale membrane bioreactor (MBR) system to treat MTBE-contaminated groundwater at an oil refinery. An MBR is a type of suspended growth reactor.
The MBR system used in the present example consisted of a 1000-gallon tank equipped with a variable speed mixer, an air diffuser capable of providing up to 600 ft^3 of air per hour, an automated pH controller, and nutrient and caustic feed systems. Soda ash was used to control pH, and a soluble fertilizer, in this case fish oil emulsion, was used as a nutrient. (Other types of soluble agricultural fertilizer can be used to supply nutrients.) The weight ratio of the nutrient comprised approximately 100 parts carbon:10 parts nitrogen:1 part phosphate. The fertilizer was added continuously to the influent contaminant stream by using a LMI model A771-152S chemical metering pump. The liquid level in the reactor was controlled by using two Dwyer model 603-A level transmitters set to maintain a reactor liquid volume of from 700 to 900 gallons.
The pH was monitored and controlled by using a Rosemount model 1055APH pH analyzer/controller and a Rosemount model 385-2-8-54 pH sensor that measured pH in the reactor. Caustic was added to the influent feed line by using an LMI model A771-152S chemical metering pump. Effluent from the reactor was passed over dual ultrafiltration membranes (Rhone Poulenc model SC37/KO9; 17.22 ft^2 of membrane surface) connected in series, then into a proof tank and then a holding tank prior to discharge into the plant's sewer system.
Operation of the reactor system was initiated by adding 225 gallons of water to the reactor and then adding concentrated BSM solution (see above) to the reactor to create a liquid concentration of 1×BSM. Twenty liters of frozen propane-grown ENV425 that had been grown in a laboratory fermentor in BSM medium with propane as a sole source of carbon and energy was frozen prior to shipment, then thawed and added directly to the water in the reactor. […] After addition to the reactor, the ENV425 was mixed well until dispersed. Then, 1.1 L of isopropanol were added while the reactor was mixing. The reactor was operated for 1.5 days until the culture became turbid. The reactor volume was then increased to 800 gallons, additional BSM was added to a final concentration of 1×BSM and an additional 3.8 L of isopropanol were added.
This initial operation was termed the "batch phase" and was used to ensure equilibration of the reactor prior to initiating continuous feed operation.
Reactor effluent was passed over the ultrafiltration membranes and retenate, containing the propane-oxidizing bacteria, was returned to the reactor. Filtrate was passed to the proof tank, and a portion of the filtrate was pumped back into the reactor to maintain an appropriate liquid volume. This was done because the flux through the membrane (40 gal./day/ft^2 of membrane) was greater than the feed rate to the reactor. Some of the return liquid passed through a spray nozzle at the top of the reactor to control reactor foaming. […] Additionally, periodic samples of the reactor headspace were sampled to estimate MTBE stripping in the reactor.
Isopropanol was used to rapidly increase biomass in the reactor and to maintain high levels of activity by the propane-oxidizing bacteria.

[5] = rat model studies; oral; cited from earlier work
[6] = test system: anaerobic sediment samples; conditions: the one active sample; more than 152 days of incubation; cited from earlier work
Acetobacterium woodii = conditions: anaerobic; cited from earlier work
Eubacterium limosum = conditions: anaerobic; cited from earlier work
strain ENV425 [7] = assay: Growth studies on MTBE pathway intermediates; assay type: cell-based, Nocardia
M. vaccae JOB5 [8] = assay: [^14 C]MTBE assay; assay type: cell-based, Mycobacterium vaccae; conditions: propane-grown, OD550 1.0, overnight, 0.5 μCi [^14 C]MTBE (2 μM MTBE)
ENV425 [9] = assay: [^14 C]MTBE assay; assay type: cell-based, Nocardia
[10] = test system: TXR mixed culture of naturally-occurring propane-oxidizing bacteria; assay: [^14 C]MTBE assay; assay type: cell-based; conditions: propane-grown, OD550 1.0, overnight, 0.5 μCi [^14 C]MTBE (2 μM MTBE)
ENV425 [11] = assay: Degradation of tetrahydrofuran; assay type: cell-based, Nocardia; conditions: propane-grown; OD550 2.0; 40 mg/L; 48 hours; room temperature
Procedure: (§3) To test the ability of propane oxidizing bacteria to degrade other environmentally-significant ether pollutants, ENV425 and a mixed culture of propane oxidizing bacteria from a laboratory bioreactor were incubated with tetrahydrofuran, and the degradation of tetrahydrofuran was measured after 48 hours. Cells of ENV425 and a mixed bioreactor culture of propane-oxidizing bacteria (termed "TXR") were grown in BSM medium with propane as the sole source of carbon and energy, collected by centrifugation, washed with BSM, and suspended in BSM to an optical density at 550 nm of 2.0. Five ml of the cell suspensions were added to 15 mL serum vials, and the vials were sealed with Teflon-lined septa and crimp tops. Vials containing BSM but no cells served as controls. Tetrahydrofuran was injected through the septa to create a final liquid concentration of 40 mg/L. The vials were then incubated at room temperature for 48 hours and analyzed by gas chromatography of subsamples of the vial headspace gas. Gas chromatography was performed as described for MTBE analysis.

[12] = test system: mixed culture of propane-oxidizing bacteria (TXR); assay: Degradation of tetrahydrofuran; assay type: cell-based; conditions: propane-grown; OD550 2.0; 40 mg/L; 48 hours; room temperature
Procedure: as §3

COC(C)(C)C [MTBE, methyl-tert-butyl ether]
% Degraded (M. vaccae JOB5 [1]; grown on isopropanol): 93%
% Degraded (M. vaccae JOB5 [1]; grown on propane): 100%
degraded % of the added MTBE (M. vaccae JOB5 [1]; propane-grown, 518 μM (46 ppm) MTBE, within 24 hr): 100%
% Degraded (ENV420; grown on ethanol): 86%
% Degraded (ENV420; grown on propane): 50%
% Degraded (ENV425 [2]; grown on isopropanol): 71%
% Degraded (ENV425 [2]; grown on propane): 67%
MTBE added to the reactor removed (strain ENV425 [3]; 2.5 day hydraulic retention time): Greater than 95%
MTBE stripping from the reactor, of the influent MTBE mass (strain ENV425 [3]; typically): < 5%
MTBE Loss % (volatilization) (ENV425 [4]; 3/7): 9.6%
MTBE Loss % (volatilization) (ENV425 [4]; 3/25): 0.9%
MTBE Loss % (volatilization) (ENV425 [4]; 4/1): 6.8%
MTBE Loss % (volatilization) (ENV425 [4]; 4/8): 4.6%
MTBE Loss % (volatilization) (ENV425 [4]; 4/15): 2.1%
MTBE Loss % (volatilization) (ENV425 [4]; Averages): 4.5%
% Removed (ENV425 [4]; 1/29, T-101 MTBE 100 mg/l): 96.4%
% Removed (ENV425 [4]; 2/2, T-101 MTBE 250 mg/l): 97.9%
% Removed (ENV425 [4]; 2/12, T-101 MTBE 240 mg/l): 91.7%
% Removed (ENV425 [4]; 2/16, T-101 MTBE 200 mg/l): 95.3%
% Removed (ENV425 [4]; 2/19, T-101 MTBE 280 mg/l): 96.1%
% Removed (ENV425 [4]; 2/26, T-101 MTBE 410 mg/l): 99.6%
% Removed (ENV425 [4]; 3/1, T-101 MTBE 780 mg/l): 96.9%
% Removed (ENV425 [4]; 3/4, T-101 MTBE 680 mg/l): 96.5%
% Removed (ENV425 [4]; 3/7, T-101 MTBE 770 mg/l): 96.1%
% Removed (ENV425 [4]; 3/11, T-101 MTBE 2000 mg/l): 97.0%
% Removed (ENV425 [4]; 3/14, T-101 MTBE 1100 mg/l): 92.0%
% Removed (ENV425 [4]; 3/18, T-101 MTBE 1900 mg/l): 99.5%
% Removed (ENV425 [4]; 3/21, T-101 MTBE 1600 mg/l): 92.5%
% Removed (ENV425 [4]; 3/25, T-101 MTBE 1590 mg/l): 97.0%
% Removed (ENV425 [4]; 3/28, T-101 MTBE 2000 mg/l): 95.4%
% Removed (ENV425 [4]; 4/1, T-101 MTBE 2200 mg/l): 96.8%
% Removed (ENV425 [4]; 4/4, T-101 MTBE 2400 mg/l): 98.0%
% Removed (ENV425 [4]; 4/8, T-101 MTBE 1700 mg/l): 94.6%
% Removed (ENV425 [4]; Avg., T-101 MTBE 1083 mg/l): 96.2%
Loss of MTBE caused by stripping/volatilization, averaged (ENV425 [4]; during the demonstration): 4.5%
influent MTBE degraded (ENV425 [4]; field and laboratory testing, hydraulic retention time 2.5 to 3.3 days): > 90%
MTBE removal (ENV425 [4]; throughout the demonstration, MTBE 40 mg/L to >2000 mg/L): Greater than 90%
no-observable-adverse-effect-level (NOAEL) [5]: 100 mg/kg/day
transformation of MTBE [6]: about 50%
degradation by resting cells (Acetobacterium woodii): not degraded
degradation by resting cells (Eubacterium limosum): not degraded

C=C(C)C(=O)O [methacrylic acid]
growth of strain ENV425 on the substance (strain ENV425 [7]): grows on

CC(O)(CO)C(=O)O (stereo not drawn) [2,3-dihydroxy-2-methyl propionic acid]
growth of strain ENV425 on the substance (strain ENV425 [7]): grows on

CC(C)(C)O [TBA, tertiary-butyl alcohol]
% Degraded (M. vaccae JOB5 [1]; grown on isopropanol): 11%
% Degraded (M. vaccae JOB5 [1]; grown on propane): 45%
degraded % of the added TBA (M. vaccae JOB5 [1]; propane-grown, within 24 hr): 100%
% Degraded (ENV420; grown on ethanol): 56%
% Degraded (ENV420; grown on propane): 10%
% Degraded (ENV425 [2]; grown on isopropanol): 0%
% Degraded (ENV425 [2]; grown on propane): 23%

[14CH3]O[14C]([14CH3])([14CH3])[14CH3] [[^14 C]MTBE]
Percent of added [^14 C] in particulate fraction (M. vaccae JOB5 [8]): 0%
Percent of added [^14 C] in CO2 fraction (M. vaccae JOB5 [8]; mean (SD) of three): 27(2) Percent
Percent of added [^14 C] in liquid fraction (M. vaccae JOB5 [8]; mean (SD) of three): 71(2) Percent
added [^14 C]MTBE converted to ^14 CO2 (ENV425 [9]; env425): > 65%
Percent of added [^14 C] in CO2 fraction (ENV425 [9]; propane-grown, OD550 5.0, overnight, 0.5 μCi [^14 C]MTBE (2 μM MTBE)): 41%
Percent of added [^14 C] in particulate fraction [10]: 0%
Percent of added [^14 C] in CO2 fraction ([10]; mean (SD) of three): 53(1) Percent
Percent of added [^14 C] in liquid fraction ([10]; mean (SD) of three): 46(1.5) Percent

CC(C)(O)C(=O)O [HIBA, 2-hydroxy isobutyric acid]
growth of strain ENV425 on the substance (strain ENV425 [7]): does not grow well

CC(=O)CO [hydroxyacetone]
growth of strain ENV425 on the substance (strain ENV425 [7]): does occur

CC(=O)O [acetic acid]
growth of strain ENV425 on the substance (strain ENV425 [7]): does occur

CCOC(C)(C)C [ETBE, ethyl-tert-butyl ether]
% Degraded (M. vaccae JOB5 [1]; grown on isopropanol): 80%
% Degraded (M. vaccae JOB5 [1]; grown on propane): 100%
% Degraded (ENV420; grown on ethanol): 31%
% Degraded (ENV420; grown on propane): 0%
% Degraded (ENV425 [2]; grown on isopropanol): 14%
% Degraded (ENV425 [2]; grown on propane): 26%

C1CCOC1 [tetrahydrofuran]
tetrahydrofuran degraded (ENV425 [11]): 100%
tetrahydrofuran degraded [12]: 100%

CC(O)C(=O)O (stereo not drawn) [lactic acid]
growth of strain ENV425 on the substance (strain ENV425 [7]): grows on

CC(C)=O [acetone]
growth of strain ENV425 on the substance (strain ENV425 [7]): does occur

CC(C)O [2-propanol]
growth of strain ENV425 on the substance (strain ENV425 [7]): does occur
